Patent publication US20230106719A1, “DISSOLVING AGENT” (NATIONAL UNIVERSITY CORPORATION HOKKAIDO UNIVERSITY, priority 2020, published 2023)
Values after ≈ are worked out from the molar mass of the structure shown.

Assay: Drug solubility in coconut oil, CAOM and related dissolving agents
Type: physicochemical

solubility of curcumin in CAOM relative to coconut oil (in CAOM versus coconut oil): 6 times
solubility at 2 days (oil or lipid, thermodynamic from solid, in coconut oil, room temperature, mean±SD n=3, read-out: solubility of curcumin in coconut oil): 2440 ± 240 µg/mL (≈ 6.62 mM)
SMILES: COc1cc(/C=C/C(=O)CC(=O)/C=C/c2ccc(O)c(OC)c2)ccc1O [curcumin]
